According to patent publication US20210379062A1, “The use of a H3R inverse agonist for the treatment of excessive daytime sleepiness associated with parkinson's disease (PD)” (Novartis AG, priority 2018, published 2021):
Read-outs that look alike come from different tables or passages of the source.

Tests used:
[1] = biological target: T1, Human histamine H3 receptor (Homo sapiens, UniProt Q9Y5N1); assay: Radioligand binding assay with [3H]-N-α-methylhistamine; conditions: human recombinant H3R, 1.0 nM [3H]-N-α-methylhistamine, Cheng-Prusoff
T1 construct: purchased PerkinElmer
T1 sequence (Q9Y5N1 whole entry): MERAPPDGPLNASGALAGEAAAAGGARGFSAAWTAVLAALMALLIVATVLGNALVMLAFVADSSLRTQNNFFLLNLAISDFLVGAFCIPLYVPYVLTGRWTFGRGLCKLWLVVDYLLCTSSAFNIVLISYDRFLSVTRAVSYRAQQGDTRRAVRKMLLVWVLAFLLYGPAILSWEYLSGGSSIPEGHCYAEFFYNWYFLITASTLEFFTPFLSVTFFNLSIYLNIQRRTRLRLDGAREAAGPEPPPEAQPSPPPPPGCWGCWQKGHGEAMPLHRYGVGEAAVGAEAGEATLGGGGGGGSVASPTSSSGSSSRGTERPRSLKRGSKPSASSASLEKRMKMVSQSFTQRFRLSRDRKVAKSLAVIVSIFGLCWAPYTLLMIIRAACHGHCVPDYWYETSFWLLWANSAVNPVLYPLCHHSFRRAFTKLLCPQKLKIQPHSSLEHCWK
Method: Human histamine H3 receptor membrane (PerkinElmer) were incubated with 1.0 nM [^3H]—N-α-methylhistamine (PerkinElmer) in the presence or absence of increasing concentrations of ligands for H3 receptor competition binding. The binding incubations were in a final volume of 0.1 ml buffer (50 mMTris pH 7.5, 5 mM MgCl2) at 28° C. for 120 minutes. Thioperamide (10 μM) was used to define non-specific binding.
All binding reactions were terminated by transferring 70 μl binding reaction from the reaction plate into filtration plates (Zeba 96-well Spin Desalting Plates, Thermo Scientific), followed by centrifugation at 1000 g for 2 min to collect the protein with bound radioligand. 200 μl of microscint-40 were added to determine the bound radiolabel by a Wallac Microbeta Trilux 2450 (Perkin Elmer). For all radioligand competition binding assays, IC50 values and Hill slopes were determined by GraphPad Prism: log(inhibitor) vs. response with variable slope. Ki was calculated using the equation in Biochem. Pharmacol. 1973. 22 (23), 3099-3108, from Cheng and Prusoff: Ki=IC50/{1+([radioligand]/Kd)}.

Rat brain and plasma PK = assay type: in vivo; conditions: 10 mg/kg oral, rats
H3 receptor = assay: Ex vivo receptor occupancy assay in rat frontal cortex; conditions: rats; for dose that resulted in H3 receptor occupancy of 80-90%: oral dosing, 1 h after compound administration
Method: Male Sprague-Dawley rats (from Shanghai SLAC Laboratory Animal CO. LTD) at the age of 5-6 weeks were used. The animals were housed in a temperature and humidity-controlled environment on a 12 h light/dark cycle with food and water available ad libitum. All the procedures were approved by Institutional Animal Care and Use Committee of Chempartner Co., LTD (IACUC Protocol NO: A998HL0076).
Compounds were dissolved in 50 mM citrate buffer (pH 3.5), or saline. The compound was then diluted stepwise to the final concentration with vehicle. Animals were dosed by p.o. or i.v. in 1 ml/kg bodyweight.
At each time point, rats were decapitated immediately. Intact brain was removed, immersed and washed in pre-cooled saline. After drying with filter paper, frontal cortex was dissected with a double-blade with an about 30° angle starting at ⅓ of anterior rat brain (weight of most brain tissues around 70±10 mg). Brain tissue was transferred into a pre-weighed tube with homogenizer beads. The tubes were weighed again and the tissue net weight was recorded. Tissue sampling was done on ice with intervals of 1 min. Then, 50 mM HEPES (Gibco® by Life Technologies) buffer were added (equivalent to 3.75 μl/mg tissue weight) followed by homogenization (frequency 30/sec for 20 sec, TissueLyser, Quiagen).
The crude homogenate samples of rat frontal cortex were used to measure H3 receptor binding as described above with [^3H]—N-α-methylhistamine as radioligand. The protein concentration of each sample was determined by Pierce BCA Protein Assay Kit (Thermo).
The cortical homogenate was added to a 96-well plate containing [^3H]—N-α-methylhistamine (0.1 nM), in a volume of 0.2 ml (final protein concentration 4 μg/μl), incubated at 28° C. for 15 min and the reaction was stopped by rapid filtration using a filtration plate (Millipore multiscreen GF/B plate). The filters were washed three times with ice-cold wash buffer (50 mM Tris, pH 7.5) and 250 μl of Microscint-40 were added followed by determination of the bound radiolabel with a Wallac Microbeta Trilux 2450 (Perkin Elmer). Nonspecific binding was determined in the presence of 10 μM thioperamide. Each data point was obtained from a total of at least four animals. The inhibition of specific [^3H]NAMH binding, calculated as relative to vehicle-treated samples, was determined to provide an indication of receptor occupancy by the compound. The dose-dependent % RO and time course were analyzed using GraphPad Prism. The dose response was fit using GraphPad Prism: log(inhibitor) vs. response with variable slope.

[2] = system: tele-methylhistamine (tMeHA); assay: Ex vivo PD determination: brain tele-methylhistamine time course in rats; design: species or system rat; conditions: 10 mg/kg oral; for effect on tMeHA levels: brain
Method: Male Sprague-Dawley rats (Shanghai SLAC Laboratory Animal Co. LTD) of 6-7 weeks age were used. Animals were housed in a temperature and humidity-controlled environment on a 12 h light/dark. All animals had free access to food and water. All procedures were approved by Institutional Animal Care and Use Committee of ChemPartner Co., LTD (IACUC Protocol NO: A998HL0002).
For bioanalysis of brain tissue tele-methylhistamine samples were further processed.
One aliquot of the stock solution was diluted using ethanol/phosphate buffer pH 7.4 (85:15, v/v) to achieve a series working solutions. The brain homogenate was centrifuged at 12000 rpm for 5 min at 4° C. Then 10 μL supernatant of the brain homogenate sample was added to 60 μL internal standard (d3-1-methyl-histamine, 20 ng/mL). The mixture was vortexed for 2 min and centrifuged at 12000 rpm for 5 min at 4° C. Finally, 60 μL supernatant was added and 3 μL supernatant was injected into LC-MS/MS for analysis (Agilent 6410, triple quadrupole mass spectrometer, Mobile phase A: H2O— 0.1% NH3, Mobile phase B: methanol— 0.1% NH3, Column: Ultimate XB-C18 (2.1×50 mm, 5 μm, Flow rate: 0.45 mL/min, temperature: 40° C.).

[3] = cited from earlier work
[4] = 100-200 mg/day, two weeks treatment, excessive sleepiness associated with PD

SMILES	Ki [1] [nM]	rate of exposure-decline in brain, relative to Compound (I) (Rat brain and plasma PK)	total brain exposure (Rat brain and plasma PK)	brain exposure (Rat brain and plasma PK; 8 h time point)	RO (H3 receptor; 10 mg/kg oral, 7 h) [%]	initial RO (H3 receptor; 10 mg/kg oral, time not given) [%]	dose that resulted in H3 receptor occupancy of 80-90% (H3 receptor) [mg/kg]	time at which tMeHA increase is first observed [2] [h]	tMeHA level at 8 h ([2]; 8 h)	effect on tMeHA levels [2]	Epworth Sleeping Scale scores [3, 4]	sleep latency in the Maintenance of Wakefulness Test [3, 4]	Epworth Sleeping Scale scores ([3]; 200-400 mg/day for four weeks)	initial RO (H3 receptor; 300 mg/kg oral, 0.5 h) [%]	RO (H3 receptor; 300 mg/kg oral, 8 h after compound administration) [%]
O=C(c1ccc(CN2CCOCC2)cc1)N1CCN(C2CC2)CC1 [bavisant, reference compound]	102	much slower	very high	high	37	90	10	1	stayed elevated	delayed increase					
NC(=O)C[S+]([O-])C(c1ccccc1)c1ccccc1 (stereo not drawn) [modafinil, 2-(benzhydrylsulfinyl)acetamide]											improved	but not sleep latency	no improvement		
Clc1ccc(CCCOCCCN2CCCCC2)cc1 [pitolisant, reference compound]			very low				300			no increase				~90	40
